According to patent US20140107021A1 (priority 2010, published 2014):
Read-outs that look alike come from different tables or passages of the source. Blank lines part the entries; values can stand above or below the compound they belong to. Side chains are listed from the residue outwards. Ends that are not written are not given here. Peptide text beside a SMILES is read from it. * marks the point of attachment. CH2CH2COOH = O=C(O)CC*

Legend:
glucagon receptor [1] = molecular target: T1, glucagon receptor (Homo sapiens, UniProt P47871); assay: glucagon receptor binding; set-up: expressed in transfected cells; host or cells: HEK293
T1 sequence (P47871 26-477): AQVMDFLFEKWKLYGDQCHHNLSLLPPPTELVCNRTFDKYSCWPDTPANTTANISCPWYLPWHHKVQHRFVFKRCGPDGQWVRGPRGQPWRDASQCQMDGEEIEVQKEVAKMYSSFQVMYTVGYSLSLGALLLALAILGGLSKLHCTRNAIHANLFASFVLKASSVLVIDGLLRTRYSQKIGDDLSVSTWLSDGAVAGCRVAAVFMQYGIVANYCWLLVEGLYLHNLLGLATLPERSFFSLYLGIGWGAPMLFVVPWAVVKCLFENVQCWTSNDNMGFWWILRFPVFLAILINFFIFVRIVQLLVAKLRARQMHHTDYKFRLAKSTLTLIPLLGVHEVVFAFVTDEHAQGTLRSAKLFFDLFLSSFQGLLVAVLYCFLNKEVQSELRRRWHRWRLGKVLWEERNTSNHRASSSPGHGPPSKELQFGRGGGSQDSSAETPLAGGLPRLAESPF

glucagon receptor [2] = molecular target: T1, glucagon receptor; assay: cell-based; conditions: for IC50(nM) (cΛMP, inhibit 0.2 mM Glucagon): Table L
Text: (§1) HEK293 cells co-transfected with the receptor and luciferase gene linked to a cAMP responsive element were employed for the bioassay.
(§2) All EC50s and IC50s are reported in the following examples in nM, unless indicated otherwise.

glucagon receptor [3] = molecular target: T1, glucagon receptor; assay: cAMP induction at the glucagon receptor (agonist activity), luciferase reporter assay in HEK293 cells; assay type: cell-based; set-up: expressed in transfected cells; host or cells: HEK293
Text: as §1, §2

GLP-1 receptor = molecular target: T2, GLP-1 receptor (Homo sapiens, UniProt P43220); assay: cAMP induction at the GLP-1 receptor (agonist activity), firefly luciferase reporter assay in HEK293 cells; assay type: cell-based
T2 construct: expressed in transfected cells; host or cells: HEK293
T2 sequence (P43220 24-463): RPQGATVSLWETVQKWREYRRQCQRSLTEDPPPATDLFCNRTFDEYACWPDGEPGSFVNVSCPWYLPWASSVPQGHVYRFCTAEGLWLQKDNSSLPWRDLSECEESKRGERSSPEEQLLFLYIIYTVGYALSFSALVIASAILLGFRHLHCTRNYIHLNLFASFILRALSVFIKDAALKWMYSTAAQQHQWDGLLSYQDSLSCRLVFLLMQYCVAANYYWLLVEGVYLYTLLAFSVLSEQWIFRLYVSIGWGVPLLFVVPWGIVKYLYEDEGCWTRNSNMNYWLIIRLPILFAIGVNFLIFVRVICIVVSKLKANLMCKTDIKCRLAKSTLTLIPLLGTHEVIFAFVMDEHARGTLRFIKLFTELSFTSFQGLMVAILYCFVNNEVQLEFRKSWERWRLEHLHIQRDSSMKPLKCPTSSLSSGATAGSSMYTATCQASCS
Text: as §1, §2

GIP receptor = molecular target: T3, GIP receptor (Homo sapiens, UniProt P48546); assay: cAMP induction at the GIP receptor (agonist activity), luciferase reporter assay in HEK293 cells; assay type: cell-based
T3 construct: expressed in transfected cells; host or cells: HEK293
T3 sequence (P48546 22-466): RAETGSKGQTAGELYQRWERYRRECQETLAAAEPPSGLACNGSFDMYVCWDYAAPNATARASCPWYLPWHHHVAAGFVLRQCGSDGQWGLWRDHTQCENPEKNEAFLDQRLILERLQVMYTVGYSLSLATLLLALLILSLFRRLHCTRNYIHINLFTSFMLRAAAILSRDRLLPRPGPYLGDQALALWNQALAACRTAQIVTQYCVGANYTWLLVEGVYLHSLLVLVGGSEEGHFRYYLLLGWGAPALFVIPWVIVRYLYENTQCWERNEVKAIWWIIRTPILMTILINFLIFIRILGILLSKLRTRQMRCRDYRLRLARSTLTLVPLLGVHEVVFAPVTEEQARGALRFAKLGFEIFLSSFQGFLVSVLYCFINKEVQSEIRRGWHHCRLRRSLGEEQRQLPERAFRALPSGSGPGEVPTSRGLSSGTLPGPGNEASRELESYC
Text: as §1, §2

[4] = Table G, average ±STD of at least three experiments, same values as receptor binding in Table I, read-out: IC50
[5] = Table L, read-out: IC50(nM) (Receptor binding)
[6] = Table E, read-out: Receptor Binding IC50

Compound: CSCC[C@H](NC(=O)[C@H](CC(C)C)NC(=O)[C@H](Cc1c[nH]c2ccccc12)NC(=O)[C@H](CCC(N)=O)NC(=O)[C@@H](NC(=O)[C@H](Cc1ccccc1)NC(=O)[C@H](CC(=O)O)NC(=O)[C@H](CCC(N)=O)NC(=O)[C@H](C)NC(=O)[C@H](CCCNC(=N)N)NC(=O)[C@H](CCCNC(=N)N)NC(=O)[C@H](CO)NC(=O)[C@H](CC(=O)O)NC(=O)[C@H](CC(C)C)NC(=O)[C@H](Cc1ccc(O)cc1)NC(=O)[C@H](CCCCN)NC(=O)[C@H](CO)NC(=O)[C@H](Cc1ccc(O)cc1)NC(=O)[C@H](CCCC(=O)O)NC(=O)[C@H](CO)NC(=O)[C@@H](NC(=O)[C@@H](N)Cc1ccccc1)[C@@H](C)O)C(C)C)C(=O)N[C@@H](CC(N)=O)C(=O)N[C@H](C(N)=O)[C@@H](C)O [(hGlu^9]Glucagon(aa6-29)-NH2] (HELM PEPTIDE1{F.T.S.[O=C(O)CCC[C@H](N[*:1])C(=O)[*:2]].Y.S.K.Y.L.D.S.R.R.A.Q.D.F.V.Q.W.L.M.N.T.[am]}$$$$V2.0; N-terminus assumed)
IC50 (glucagon receptor [1]; [4]): 163 ± 70.8 nM | Kb (glucagon receptor [2]): 537 nM | cAMP pA2 (glucagon receptor [2]; Table I): 6.27 ± 0.11

Compound: FTSEYSKYLDSRRAQDFVQWLMNT-NH2 [[Glu^9]Glucagon(aa6-29)-NH2]
IC50 (glucagon receptor [1]; [4]): 36.4 ± 5.23 nM | Kb (glucagon receptor [2]): 69.2 nM | cAMP (I/A)50 (glucagon receptor [2]): 486 | cAMP pA2 (glucagon receptor [2]): 7.16 ± 0.27

Compound: [E9, C24(20 kDaPEG)]Glucagon(aa6-29)-NH2 (FTSEYSKYLDSRRAQDFVC(PEG 20 kDa)WLMNT-NH2; not fully specified (residue 1))
IC50 (glucagon receptor [1]; [5]): > 1000 nM | IC50(nM) (cΛMP, inhibit 0.2 mM Glucagon) (glucagon receptor [2]): no antagonism

Compound: [K5(CH2CH2S-20 kDaPEG), E9]Glucagon(aa5-29)-NH2 (K([CH2CH2S-PEG 20 kDa])FTSEYSKYLDSRRAQDFVQWLMNT-NH2)
IC50 (glucagon receptor [1]; [5]): > 10000 nM | IC50(nM) (cΛMP, inhibit 0.2 mM Glucagon) (glucagon receptor [2]): no antagonism

Compound: SQGTTSDYSKYLDSRRAQDFVQWLMNT-NH2 [[desHis^1, desPhe^6]Glucagon-NH2]
IC50 (glucagon receptor [1]; [6]): 130 ± 44.9 nM

Compound: [E9, C11(20 kDaPEG)]Glucagon(aa6-29)-NH2 (FTSEYC(PEG 20 kDa)KYLDSRRAQDFVQWLMNT-NH2)
IC50 (glucagon receptor [1]; [5]): > 1000 nM | IC50(nM) (cΛMP, inhibit 0.2 mM Glucagon) (glucagon receptor [2]): no antagonism

Compound: Y1Aib2I7I12K16Q17A18Aib20E21N24-LAG27-29-CEX-K (YXQGTFISDYSIYLDKQAAXEFVNWLLAGGPSSGAPPPSK; HELM PEPTIDE1{Y.[Aib].Q.G.T.F.I.S.D.Y.S.I.Y.L.D.K.Q.A.A.[Aib].E.F.V.N.W.L.L.A.G.G.P.S.S.G.A.P.P.P.S.K.[am]}$$$$V2.0; N-terminus assumed; SMILES CC[C@H](C)[C@H](NC(=O)[C@H](CO)NC(=O)[C@H](Cc1ccc(O)cc1)NC(=O)[C@H](CC(=O)O)NC(=O)[C@H](CO)NC(=O)[C@@H](NC(=O)[C@H](Cc1ccccc1)NC(=O)[C@@H](NC(=O)CNC(=O)[C@H](CCC(N)=O)NC(=O)C(C)(C)NC(=O)[C@@H](N)Cc1ccc(O)cc1)[C@@H](C)O)[C@@H](C)CC)C(=O)N[C@@H](Cc1ccc(O)cc1)C(=O)N[C@@H](CC(C)C)C(=O)N[C@@H](CC(=O)O)C(=O)N[C@@H](CCCCN)C(=O)N[C@@H](CCC(N)=O)C(=O)N[C@@H](C)C(=O)N[C@@H](C)C(=O)NC(C)(C)C(=O)N[C@@H](CCC(=O)O)C(=O)N[C@@H](Cc1ccccc1)C(=O)N[C@H](C(=O)N[C@@H](CC(N)=O)C(=O)N[C@@H](Cc1c[nH]c2ccccc12)C(=O)N[C@@H](CC(C)C)C(=O)N[C@@H](CC(C)C)C(=O)N[C@@H](C)C(=O)NCC(=O)NCC(=O)N1CCC[C@H]1C(=O)N[C@@H](CO)C(=O)N[C@@H](CO)C(=O)NCC(=O)N[C@@H](C)C(=O)N1CCC[C@H]1C(=O)N1CCC[C@H]1C(=O)N1CCC[C@H]1C(=O)N[C@@H](CO)C(=O)N[C@@H](CCCCN)C(N)=O)C(C)C) [MT-357]
% Relative Activity at GR (glucagon receptor [3]; Table 8): 170% | % Relative Activity GLP-1R (GLP-1 receptor; Table 8): 0.81% | % Relative Activity at GIPR (GIP receptor; Table 8): 198%

Compound: TSEYSKYLDSRRAQDFVQWLMNT-NH2 [[Glu^9]Glucagon(aa7-29)-NH2]
IC50 (glucagon receptor [1]; [4]): > 10000 nM

Compound: CC[C@H](C)[C@H](NC(=O)[C@H](CO)NC(=O)[C@H](Cc1ccc(O)cc1)NC(=O)[C@H](CC(=O)O)NC(=O)[C@H](CO)NC(=O)[C@@H](NC(=O)[C@H](Cc1ccccc1)NC(=O)[C@@H](NC(=O)CNC(=O)[C@H](CCC(=O)O)NC(=O)C(C)(C)NC(=O)[C@@H](N)Cc1ccc(O)cc1)[C@@H](C)O)[C@@H](C)O)C(=O)N[C@@H](Cc1ccc(O)cc1)C(=O)N[C@@H](CC(C)C)C(=O)N[C@@H](CC(=O)O)C(=O)N[C@@H](CCCCN)C(=O)N[C@@H](CCC(N)=O)C(=O)N[C@@H](C)C(=O)N[C@@H](C)C(=O)NC(C)(C)C(=O)N[C@@H](CCC(=O)O)C(=O)N[C@@H](Cc1ccccc1)C(=O)N[C@H](C(=O)N[C@@H](CC(N)=O)C(=O)N[C@@H](Cc1c[nH]c2ccccc12)C(=O)N[C@@H](CC(C)C)C(=O)N[C@@H](CC(C)C)C(=O)N[C@@H](C)C(=O)NCC(=O)NCC(=O)N1CCC[C@H]1C(=O)N[C@@H](CO)C(=O)N[C@@H](CO)C(=O)NCC(=O)N[C@@H](C)C(=O)N1CCC[C@H]1C(=O)N1CCC[C@H]1C(=O)N1CCC[C@H]1C(=O)N[C@@H](CO)C(N)=O)C(C)C [mt-395]
EC50 (glucagon receptor [3]; Table 4, read-out: GR EC50): 3.41 nM | GR relative activity (glucagon receptor [3]; Table 4, relative to standard): 0.87% | EC50 (GLP-1 receptor; Table 4, read-out: GLP-1R EC50): 0.0076 nM | GLP-1R relative activity (GLP-1 receptor; Table 4, relative to standard): 321.55% | EC50 (GIP receptor; Table 4, read-out: GIPR EC50): 0.0025 nM | GIPR relative activity (GIP receptor; Table 4, relative to standard): 537.45%

Now from value to compound:

IC50 (glucagon receptor [1]; [4]): 36.4 ± 8.69 nM
Compound: H-LTFTSEYSKYLDSRRAQDFVQWLMNT-NH2 [[Leu^4, Glu^9]Glucagon(aa4-29)-NH2]

IC50 (glucagon receptor [1]; [4]): 146 ± 36.9 nM | Kb (glucagon receptor [2]): 229 nM | cAMP pA2 (glucagon receptor [2]; Table I): 6.64 ± 0.29
Compound: CSCC[C@H](NC(=O)[C@H](CC(C)C)NC(=O)[C@H](Cc1c[nH]c2ccccc12)NC(=O)[C@H](CCC(N)=O)NC(=O)[C@@H](NC(=O)[C@H](Cc1ccccc1)NC(=O)[C@H](CC(=O)O)NC(=O)[C@H](CCC(N)=O)NC(=O)[C@H](C)NC(=O)[C@H](CCCNC(=N)N)NC(=O)[C@H](CCCNC(=N)N)NC(=O)[C@H](CO)NC(=O)[C@H](CC(=O)O)NC(=O)[C@H](CC(C)C)NC(=O)[C@H](Cc1ccc(O)cc1)NC(=O)[C@H](CCCCN)NC(=O)[C@H](CO)NC(=O)[C@H](Cc1ccc(O)cc1)NC(=O)[C@H](CSCCC(=O)O)NC(=O)[C@H](CO)NC(=O)[C@@H](NC(=O)[C@@H](N)Cc1ccccc1)[C@@H](C)O)C(C)C)C(=O)N[C@@H](CC(N)=O)C(=O)N[C@H](C(N)=O)[C@@H](C)O [[(CSA-2)^9]Glucagon(aa6-29)-NH2, [C^9(SCH2CH2COOH)]Glucagon(aa6-29)-NH2] (H-FTSC(CH2CH2COOH)YSKYLDSRRAQDFVQWLMNT-NH2; N-terminus assumed)

IC50 (glucagon receptor [1]; [5]): > 10000 nM | IC50(nM) (cΛMP, inhibit 0.2 mM Glucagon) (glucagon receptor [2]): no antagonism
Compound: [Phe6, E9, C24(20 kDaPEG)]Glucagon aa6-29)-NH2 (FTSEYSKYLDSRRAQDFVC(PEG20kDa)WLMNT-NH2)

IC50 (glucagon receptor [1]; Table H, same values as receptor binding in Table I, read-out: IC50): 13.2 ± 1 nM
Compound: CSCC[C@H](NC(=O)[C@H](CC(C)C)NC(=O)[C@H](Cc1c[nH]c2ccccc12)NC(=O)[C@H](CCC(N)=O)NC(=O)[C@@H](NC(=O)[C@H](Cc1ccccc1)NC(=O)[C@H](CC(=O)O)NC(=O)[C@H](CCC(N)=O)NC(=O)[C@H](C)NC(=O)[C@H](CCCNC(=N)N)NC(=O)[C@H](CCCNC(=N)N)NC(=O)[C@H](CO)NC(=O)[C@H](CC(=O)O)NC(=O)[C@H](CC(C)C)NC(=O)[C@H](Cc1ccc(O)cc1)NC(=O)[C@H](CCCCN)NC(=O)[C@H](CO)NC(=O)[C@H](Cc1ccc(O)cc1)NC(=O)[C@H](CCS(=O)(=O)O)NC(=O)[C@H](CO)NC(=O)[C@@H](NC(=O)[C@H](Cc1ccccc1)NC(=O)[C@@H](NC(=O)CNC(=O)[C@H](CCC(N)=O)NC(=O)[C@@H](N)CO)[C@@H](C)O)[C@@H](C)O)C(C)C)C(=O)N[C@@H](CC(N)=O)C(=O)N[C@H](C(N)=O)[C@@H](C)O [[hCys^9(SO3H)]Glucagon(aa2-29)-NH2]

IC50 (glucagon receptor [1]; [6]): 13.9 ± 0.37 nM
Compound: CC(C)C[C@H](NC(=O)[C@H](Cc1ccc(O)cc1)NC(=O)[C@H](CCCCN)NC(=O)[C@H](CO)NC(=O)[C@H](Cc1ccc(O)cc1)NC(=O)[C@H](CCS(=O)(=O)O)NC(=O)[C@H](CO)NC(=O)[C@@H](NC(=O)[C@H](Cc1ccccc1)NC(=O)[C@@H](NC(=O)CNC(=O)[C@H](CCC(N)=O)NC(=O)[C@@H](N)CO)[C@@H](C)O)[C@@H](C)O)C(=O)N[C@@H](CC(=O)O)C(=O)N[C@@H](CO)C(=O)N[C@@H](CCCNC(=N)N)C(=O)N[C@@H](CCCNC(=N)N)C(=O)N[C@@H](C)C(=O)N[C@@H](CCC(N)=O)C(=O)N[C@@H](CC(=O)O)C(=O)N[C@@H](Cc1ccccc1)C(=O)N[C@H](C(=O)N[C@@H](CCC(N)=O)C(=O)N[C@@H](Cc1ccccc1)C(=O)N[C@@H](CC(C)C)C(=O)N[C@@H](CC(C)C)C(=O)N[C@@H](CC(N)=O)C(=O)N[C@H](C(N)=O)[C@@H](C)O)C(C)C [[desIIis^1, hCys^9(SO3—), Phe^25, Leu^27]Glucagon-NH2] (HELM PEPTIDE1{S.Q.G.T.F.T.S.[O=C([C@H](CCS(=O)(=O)O)N[*:1])[*:2]].Y.S.K.Y.L.D.S.R.R.A.Q.D.F.V.Q.F.L.L.N.T.[am]}$$$$V2.0; N-terminus assumed)
